Measurements taken from BindingDB's records for doi:10.1021/jm8013458 (University of Copenhagen, 2009).

Tests used:
[1] = biological target: Excitatory amino acid transporter 2 (Homo sapiens, UniProt P43004); experiment: Displacement of [3H]D-Asp from human EAAT2 receptor expressed in HEK293 cells
[2] = biological target: T1, Excitatory amino acid transporter 3 (Homo sapiens, UniProt P43005); experiment: Displacement of [3H]D-Asp from human EAAT3 receptor expressed in HEK293 cells
T1 sequence (P43005 whole entry): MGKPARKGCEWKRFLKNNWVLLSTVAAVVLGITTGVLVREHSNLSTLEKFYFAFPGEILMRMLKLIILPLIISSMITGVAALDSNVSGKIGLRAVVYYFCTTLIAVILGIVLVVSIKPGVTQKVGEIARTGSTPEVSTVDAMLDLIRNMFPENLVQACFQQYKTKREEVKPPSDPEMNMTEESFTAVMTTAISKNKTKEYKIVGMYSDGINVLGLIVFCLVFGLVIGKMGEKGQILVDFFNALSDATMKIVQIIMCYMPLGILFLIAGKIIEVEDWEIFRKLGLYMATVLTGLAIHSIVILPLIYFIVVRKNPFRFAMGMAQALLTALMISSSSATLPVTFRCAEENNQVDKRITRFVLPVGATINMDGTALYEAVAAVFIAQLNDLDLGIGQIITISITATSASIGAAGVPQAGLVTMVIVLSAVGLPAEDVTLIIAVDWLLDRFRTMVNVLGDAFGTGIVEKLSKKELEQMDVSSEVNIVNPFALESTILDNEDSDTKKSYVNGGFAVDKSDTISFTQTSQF

[3] = biological target: Excitatory amino acid transporter 1 (Homo sapiens, UniProt P43003); experiment: Displacement of [3H]D-Asp from human EAAT1 receptor expressed in HEK293 cells
Excitatory amino acid transporter 1, sequence (P43003 whole entry): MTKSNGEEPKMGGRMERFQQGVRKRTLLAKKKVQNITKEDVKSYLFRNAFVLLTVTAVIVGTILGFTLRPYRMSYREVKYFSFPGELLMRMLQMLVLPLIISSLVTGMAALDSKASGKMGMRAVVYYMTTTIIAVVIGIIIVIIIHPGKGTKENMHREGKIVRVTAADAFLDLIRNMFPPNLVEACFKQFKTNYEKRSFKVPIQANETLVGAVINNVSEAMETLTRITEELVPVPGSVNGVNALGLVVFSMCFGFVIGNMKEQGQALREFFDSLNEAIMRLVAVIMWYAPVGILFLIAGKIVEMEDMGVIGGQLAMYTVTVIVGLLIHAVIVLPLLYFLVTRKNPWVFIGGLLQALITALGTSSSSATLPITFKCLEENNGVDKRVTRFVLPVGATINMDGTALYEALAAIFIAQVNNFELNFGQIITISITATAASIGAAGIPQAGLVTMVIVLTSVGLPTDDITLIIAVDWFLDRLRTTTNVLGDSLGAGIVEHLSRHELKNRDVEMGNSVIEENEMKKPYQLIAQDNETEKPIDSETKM

Excitatory amino acid transporter 2, sequence (P43004 whole entry): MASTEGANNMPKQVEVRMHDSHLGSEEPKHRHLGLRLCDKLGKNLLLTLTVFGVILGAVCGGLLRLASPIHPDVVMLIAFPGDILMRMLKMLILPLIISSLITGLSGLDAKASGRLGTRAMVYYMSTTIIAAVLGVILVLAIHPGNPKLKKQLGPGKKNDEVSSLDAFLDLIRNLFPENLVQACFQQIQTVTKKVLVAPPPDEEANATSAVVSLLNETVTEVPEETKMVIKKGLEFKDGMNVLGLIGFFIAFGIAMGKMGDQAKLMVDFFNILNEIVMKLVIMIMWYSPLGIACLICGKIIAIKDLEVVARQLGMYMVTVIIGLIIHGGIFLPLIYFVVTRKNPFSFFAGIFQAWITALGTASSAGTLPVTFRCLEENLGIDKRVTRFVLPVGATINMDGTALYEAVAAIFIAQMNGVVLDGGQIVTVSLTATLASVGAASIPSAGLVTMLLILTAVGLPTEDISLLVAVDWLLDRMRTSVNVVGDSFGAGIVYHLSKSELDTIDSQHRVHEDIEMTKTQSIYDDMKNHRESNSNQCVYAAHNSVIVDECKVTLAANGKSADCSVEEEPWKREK

| Compound | IC50 [1] | IC50 [2] | IC50 [3] |
| --- | --- | --- | --- |
| COc1ccc(C2C3=C(CC(c4ccccc4Cl)CC3=O)OC(=N)C2C#N)cc1 (centres undefined) [2-amino-7-(2-chlorophenyl)-4-(4-methoxyphenyl)-5-oxo-5,6,7,8-tetrahydro-4H-chromene-3-carbonitrile] | > 300 µM | > 300 µM | – |
| COc1ccc(C2C3=C(CC(c4ccc(OC)c(OC)c4)CC3=O)OC(=N)C2C#N)cc1 (centres undefined) [2-Amino-4-(4-methoxyphenyl)-7-(3,4-dimethoxyphenyl)-5-oxo-5,6,7,8-tetrahydro-4H-chromene-3-carbonitrile] | > 300 µM | > 300 µM | – |
| N#CC1C(=N)OC2=C(C(=O)CC(c3ccccc3)C2)C1c1ccc2ccccc2c1 (centres undefined) [2-amino-4-(naphthalen-2-yl)-5-oxo-7-phenyl-5,6,7,8-tetrahydro-4H-chromene-3-carbonitrile] | > 100 µM | > 100 µM | 3.6 µM |
| N#CC1C(=N)OC2=C(C(=O)CC(c3ccco3)C2)C1c1ccccc1 (centres undefined) [2-amino-7-(furan-2-yl)-5-oxo-4-phenyl-5,6,7,8-tetrahydro-4H-chromene-3-carbonitrile] | > 300 µM | > 300 µM | – |
| COc1cccc(C2C3=C(CC(c4ccccc4)CC3=O)OC(=N)C2C#N)c1OC (centres undefined) [2-amino-4-(2,3-dimethoxyphenyl)-5-oxo-7-phenyl-5,6,7,8-tetrahydro-4H-chromene-3-carbonitrile] | – | – | 50.1 µM |
| CC1CC(=O)C2=C(C1)OC(=N)C(C#N)C2c1ccc2c(c1)OCO2 (centres undefined) [2-amino-4-(benzo[d][1,3]dioxol-5-yl)-7-methyl-5-oxo-5,6,7,8-tetrahydro-4H-chromene-3-carbonitrile] | > 300 µM | > 300 µM | > 300 µM |
| N#CC1C(=N)OC2=C(C(=O)CC(c3ccccc3)C2)C1c1ccc2c(c1)OCO2 (centres undefined) | > 300 µM | > 300 µM | – |
| COc1ccc(C2C3=C(CC(c4cccc5ccccc45)CC3=O)OC(=N)C2C#N)cc1 (centres undefined) [2-Amino-4-(4-methoxyphenyl)-7-(naphthalene-1-yl)-5-oxo-5,6,7,8-tetrahydro-4H-chromene-3-carbonitrile] | > 300 µM | > 300 µM | 0.66 µM |
| CC1C2=C(CC(c3ccccc3)CC2=O)OC(=N)C1C#N (centres undefined) [2-amino-4-methyl-5-oxo-7-phenyl-5,6,7,8-tetrahydro-4H-chromene-3-carbonitrile] | > 316 µM | > 300 µM | – |
| COc1ccc(C2C3=C(CC(c4ccco4)CC3=O)OC(=N)C2C#N)cc1OC(=O)N1CCOCC1 (centres undefined) [5-(2-amino-3-cyano-7-(furan-2-yl)-5-oxo-5,6,7,8-tetrahydro-4H-chromen-4-yl)-2-methoxyphenyl morpholine-4-carboxylate] | > 300 µM | > 300 µM | 100 µM |

Second part, the molecule after the results:

| IC50 [1] | IC50 [2] | IC50 [3] | Compound |
| --- | --- | --- | --- |
| > 100 µM | > 100 µM | 3.6 µM | N#CC1C(=N)OC2=C(C(=O)CC(c3ccccc3)C2)C1c1ccc([N+](=O)[O-])cc1 (centres undefined) [2-amino-4-(4-nitrophenyl)-5-oxo-7-phenyl-5,6,7,8-tetrahydro-4H-chromene-3-carbonitrile] |
| > 300 µM | > 300 µM | – | N#CC1C(=N)OC2=C(C(=O)CC(c3cccs3)C2)C1c1ccc([N+](=O)[O-])cc1 (centres undefined) [2-amino-4-(4-nitrophenyl)-5-oxo-7-(thiophen-2-yl)-5,6,7,8-tetrahydro-4H-chromene-3-carbonitrile] |
| > 300 µM | > 300 µM | 30 µM | N#CC1C(=N)OC2=C(C(=O)CC(c3ccccc3)C2)C1c1cccnc1 (centres undefined) [2-amino-5-oxo-7-phenyl-4-(pyridin-3-yl)-5,6,7,8-tetrahydro-4H-chromene-3-carbonitrile] |
| > 100 µM | > 100 µM | 30 µM | N#CC1C(=N)OC2=C(C(=O)CC(c3ccccc3)C2)C1Cc1ccccc1 (centres undefined) [2-amino-4-benzyl-5-oxo-7-phenyl-5,6,7,8-tetrahydro-4H-chromene-3-carbonitrile] |
| > 300 µM | > 300 µM | > 300 µM | N#CC1C(=N)OC2=C(C(=O)CCC2)C1c1ccccc1F (centres undefined) [2-amino-4-(2-fluorophenyl)-5-oxo-5,6,7,8-tetrahydro-4H-chromene-3-carbonitrile] |
| > 100 µM | > 100 µM | – | N#CC1C(=N)OC2=C(C(=O)CC(c3ccccc3)C2)C1c1ccc(-c2ccccc2)cc1 (centres undefined) [2-amino-4-(biphenyl-4-yl)-5-oxo-7-phenyl-5,6,7,8-tetrahydro-4H-chromene-3-carbonitrile] |
| > 300 µM | > 300 µM | > 300 µM | N#CC1CC2=C(CC(c3ccccc3)CC2=O)OC1=N (centres undefined) [2-Amino-5-oxo-7-phenyl-5,6,7,8-tetrahydro-4H-chromene-3-carbonitrile] |
| > 100 µM | > 100 µM | – | CSc1ccc(C2C3=C(CC(c4ccccc4)CC3=O)OC(=N)C2C#N)cc1 (centres undefined) [2-amino-4-(4-(methylthio)phenyl)-5-oxo-7-phenyl-5,6,7,8-tetrahydro-4H-chromene-3-carbonitrile] |
